Experiments:
Format in all cases: cell-based
[1] = target: proteins of U3A human fibrosarcoma cells (4462 proteins detected) (Homo sapiens, UniProt O60462); details: protein NRP2; soluble abundance after heat, U3A cells
[2] = target: proteins of U3A human fibrosarcoma cells (4462 proteins detected) (Homo sapiens, UniProt Q15043); details: protein SLC39A14; soluble abundance after heat, U3A cells
[3] = target: proteins of U3A human fibrosarcoma cells (4462 proteins detected) (Homo sapiens, UniProt Q8IXJ6); details: protein SIRT2; U3A cells
[4] = target: proteins of U3A human fibrosarcoma cells (4462 proteins detected) (Homo sapiens, UniProt Q9BVS5); details: protein TRMT61B; soluble abundance after heat, U3A cells
[5] = target: proteins of U3A human fibrosarcoma cells (4462 proteins detected) (Homo sapiens, UniProt Q16610); details: protein ECM1; U3A, 10 μM, 2 h
[6] = target: proteins of U3A human fibrosarcoma cells (4462 proteins detected) (Homo sapiens, UniProt Q14161); details: protein GIT2; soluble abundance after heat, U3A cells
[7] = target: proteins of U3A human fibrosarcoma cells (4462 proteins detected) (Homo sapiens, UniProt P63146); details: protein UBE2B, U3A cells
[8] = target: proteins of U3A human fibrosarcoma cells (4462 proteins detected) (Homo sapiens, UniProt P78559); details: protein MAP1A, U3A cells
[9] = target: proteins of U3A human fibrosarcoma cells (4462 proteins detected) (Homo sapiens, UniProt O00159); details: protein MYO1C, U3A cells
[10] = target: proteins of U3A human fibrosarcoma cells (4462 proteins detected) (Homo sapiens, UniProt Q14847); details: protein LASP1, U3A cells
[11] = target: proteins of U3A human fibrosarcoma cells (4462 proteins detected) (Homo sapiens, UniProt Q8N163); details: protein CCAR2; U3A cells
[12] = target: proteins of U3A human fibrosarcoma cells (4462 proteins detected) (Homo sapiens, UniProt Q99633); details: protein PRPF18; U3A cells
[13] = target: proteins of U3A human fibrosarcoma cells (4462 proteins detected) (Homo sapiens, UniProt P48643); details: protein CCT5; U3A cells
[14] = target: proteins of U3A human fibrosarcoma cells (4462 proteins detected) (Homo sapiens, UniProt Q9Y6D5); details: protein ARFGEF2; U3A cells
[15] = target: proteins of U3A human fibrosarcoma cells (4462 proteins detected) (Homo sapiens, UniProt Q92530); details: protein PSMF1; soluble abundance after heat, U3A cells
[16] = target: proteins of U3A human fibrosarcoma cells (4462 proteins detected) (Homo sapiens, UniProt Q86UA6); details: protein RPAIN, U3A cells
[17] = target: proteins of U3A human fibrosarcoma cells (4462 proteins detected) (Homo sapiens, UniProt P25325); details: protein MPST, U3A cells
[18] = target: proteins of U3A human fibrosarcoma cells (4462 proteins detected) (Homo sapiens, UniProt O95671); details: protein ASMTL; U3A, 10 μM, 2 h
[19] = target: proteins of U3A human fibrosarcoma cells (4462 proteins detected) (Homo sapiens, UniProt O60293); details: protein ZFC3H1; U3A cells
[20] = target: proteins of U3A human fibrosarcoma cells (4462 proteins detected) (Homo sapiens, UniProt Q8N9N2); details: protein ASCC1; U3A cells
[21] = target: proteins of U3A human fibrosarcoma cells (4462 proteins detected) (Homo sapiens, UniProt Q9UIJ7); details: protein AK3; U3A cells
[22] = target: proteins of U3A human fibrosarcoma cells (4462 proteins detected) (Homo sapiens, UniProt Q96T37); details: protein RBM15; U3A cells
[23] = target: proteins of U3A human fibrosarcoma cells (4462 proteins detected) (Homo sapiens, UniProt Q9Y2H0); details: protein DLGAP4, U3A cells
[24] = target: proteins of U3A human fibrosarcoma cells (4462 proteins detected) (Homo sapiens, UniProt O14965); details: protein AURKA; soluble abundance after heat, U3A cells
[25] = target: proteins of U3A human fibrosarcoma cells (4462 proteins detected) (Homo sapiens, UniProt Q12979); details: protein ABR; U3A cells
[26] = target: proteins of U3A human fibrosarcoma cells (4462 proteins detected) (Homo sapiens, UniProt Q9NNW5); details: protein WDR6, U3A cells
[27] = target: proteins of U3A human fibrosarcoma cells (4462 proteins detected) (Homo sapiens, UniProt O75459); details: protein PAGE1, U3A cells
[28] = target: proteins of U3A human fibrosarcoma cells (4462 proteins detected) (Homo sapiens, UniProt Q99848); details: protein EBNA1BP2; U3A cells
[29] = target: proteins of U3A human fibrosarcoma cells (4462 proteins detected) (Homo sapiens, UniProt Q12933); details: protein TRAF2; U3A cells
[30] = target: proteins of U3A human fibrosarcoma cells (4462 proteins detected) (Homo sapiens, UniProt P49915); details: protein GMPS; soluble abundance after heat, U3A cells

Chain of proteins of U3A human fibrosarcoma cells (4462 proteins detected) (Homo sapiens, UniProt Q96T37) (Q96T37 whole entry): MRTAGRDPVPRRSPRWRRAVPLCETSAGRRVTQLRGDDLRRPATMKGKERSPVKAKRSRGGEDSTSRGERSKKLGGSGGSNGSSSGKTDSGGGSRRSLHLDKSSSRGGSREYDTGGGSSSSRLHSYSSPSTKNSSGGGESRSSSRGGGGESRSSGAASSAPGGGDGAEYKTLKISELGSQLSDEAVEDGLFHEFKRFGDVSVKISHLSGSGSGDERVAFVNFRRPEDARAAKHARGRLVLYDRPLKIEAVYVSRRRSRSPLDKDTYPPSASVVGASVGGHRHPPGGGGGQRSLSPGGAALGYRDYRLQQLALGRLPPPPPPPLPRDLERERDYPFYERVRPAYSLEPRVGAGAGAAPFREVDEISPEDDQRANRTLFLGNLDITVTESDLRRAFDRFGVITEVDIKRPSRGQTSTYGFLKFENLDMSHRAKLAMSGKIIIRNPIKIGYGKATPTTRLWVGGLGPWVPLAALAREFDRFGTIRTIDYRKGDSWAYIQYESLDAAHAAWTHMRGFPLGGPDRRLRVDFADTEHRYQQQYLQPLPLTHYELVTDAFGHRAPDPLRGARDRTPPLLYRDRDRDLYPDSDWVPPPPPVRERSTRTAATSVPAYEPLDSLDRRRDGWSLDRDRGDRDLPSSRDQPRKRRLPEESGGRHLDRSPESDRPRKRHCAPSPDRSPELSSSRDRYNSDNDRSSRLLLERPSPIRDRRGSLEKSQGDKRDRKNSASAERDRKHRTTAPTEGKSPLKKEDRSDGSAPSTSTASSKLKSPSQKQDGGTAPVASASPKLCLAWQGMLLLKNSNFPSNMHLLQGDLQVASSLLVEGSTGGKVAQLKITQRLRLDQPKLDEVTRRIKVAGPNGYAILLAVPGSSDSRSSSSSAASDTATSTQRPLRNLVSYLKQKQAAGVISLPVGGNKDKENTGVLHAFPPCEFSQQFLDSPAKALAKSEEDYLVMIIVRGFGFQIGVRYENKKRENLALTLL
Chain of proteins of U3A human fibrosarcoma cells (4462 proteins detected) (Homo sapiens, UniProt Q9Y2H0) (Q9Y2H0 whole entry): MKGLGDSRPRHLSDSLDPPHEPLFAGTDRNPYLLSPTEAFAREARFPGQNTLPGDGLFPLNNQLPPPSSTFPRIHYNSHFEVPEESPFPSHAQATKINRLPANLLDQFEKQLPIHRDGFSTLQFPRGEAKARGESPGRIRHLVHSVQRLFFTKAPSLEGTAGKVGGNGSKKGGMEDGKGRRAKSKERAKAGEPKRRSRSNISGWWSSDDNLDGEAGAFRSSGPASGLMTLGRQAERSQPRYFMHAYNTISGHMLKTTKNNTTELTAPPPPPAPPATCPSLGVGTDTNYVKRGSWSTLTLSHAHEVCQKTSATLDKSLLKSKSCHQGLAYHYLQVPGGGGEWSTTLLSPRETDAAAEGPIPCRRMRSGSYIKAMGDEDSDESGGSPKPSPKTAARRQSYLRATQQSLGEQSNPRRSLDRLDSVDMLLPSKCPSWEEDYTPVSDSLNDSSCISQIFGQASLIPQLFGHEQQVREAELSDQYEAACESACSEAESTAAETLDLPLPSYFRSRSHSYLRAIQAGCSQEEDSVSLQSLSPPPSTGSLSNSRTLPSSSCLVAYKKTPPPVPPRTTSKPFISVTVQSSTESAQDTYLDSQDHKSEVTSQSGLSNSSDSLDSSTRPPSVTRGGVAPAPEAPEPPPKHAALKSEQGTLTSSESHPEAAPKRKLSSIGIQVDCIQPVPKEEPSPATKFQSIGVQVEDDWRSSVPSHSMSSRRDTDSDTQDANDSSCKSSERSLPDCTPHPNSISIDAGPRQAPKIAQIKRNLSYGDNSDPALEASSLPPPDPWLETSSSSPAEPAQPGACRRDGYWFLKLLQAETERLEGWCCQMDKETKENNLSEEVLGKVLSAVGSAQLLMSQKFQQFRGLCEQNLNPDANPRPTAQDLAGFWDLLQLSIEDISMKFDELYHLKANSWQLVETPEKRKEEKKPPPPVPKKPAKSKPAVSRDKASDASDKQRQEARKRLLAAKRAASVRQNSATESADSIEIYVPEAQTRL
Chain of proteins of U3A human fibrosarcoma cells (4462 proteins detected) (Homo sapiens, UniProt Q99848) (Q99848 whole entry): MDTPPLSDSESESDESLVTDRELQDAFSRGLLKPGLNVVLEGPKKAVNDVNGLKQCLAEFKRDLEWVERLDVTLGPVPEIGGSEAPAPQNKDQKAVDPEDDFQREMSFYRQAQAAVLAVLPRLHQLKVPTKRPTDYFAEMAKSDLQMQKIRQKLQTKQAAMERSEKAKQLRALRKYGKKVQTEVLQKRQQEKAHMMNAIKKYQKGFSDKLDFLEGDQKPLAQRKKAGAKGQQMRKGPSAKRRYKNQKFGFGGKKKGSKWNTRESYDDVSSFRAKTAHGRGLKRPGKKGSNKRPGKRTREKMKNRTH
Chain of proteins of U3A human fibrosarcoma cells (4462 proteins detected) (Homo sapiens, UniProt O14965) (O14965 whole entry): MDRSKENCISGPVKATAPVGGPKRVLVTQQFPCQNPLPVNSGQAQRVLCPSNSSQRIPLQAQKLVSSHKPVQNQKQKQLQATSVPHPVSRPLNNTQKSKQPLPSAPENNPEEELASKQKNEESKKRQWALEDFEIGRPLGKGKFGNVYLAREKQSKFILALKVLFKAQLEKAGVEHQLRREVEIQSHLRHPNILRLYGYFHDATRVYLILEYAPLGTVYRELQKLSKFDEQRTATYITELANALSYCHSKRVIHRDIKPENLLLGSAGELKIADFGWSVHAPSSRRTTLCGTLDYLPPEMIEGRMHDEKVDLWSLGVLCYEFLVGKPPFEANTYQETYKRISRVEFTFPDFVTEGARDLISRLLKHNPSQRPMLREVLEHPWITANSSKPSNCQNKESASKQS
Chain of proteins of U3A human fibrosarcoma cells (4462 proteins detected) (Homo sapiens, UniProt Q8IXJ6) (Q8IXJ6 whole entry): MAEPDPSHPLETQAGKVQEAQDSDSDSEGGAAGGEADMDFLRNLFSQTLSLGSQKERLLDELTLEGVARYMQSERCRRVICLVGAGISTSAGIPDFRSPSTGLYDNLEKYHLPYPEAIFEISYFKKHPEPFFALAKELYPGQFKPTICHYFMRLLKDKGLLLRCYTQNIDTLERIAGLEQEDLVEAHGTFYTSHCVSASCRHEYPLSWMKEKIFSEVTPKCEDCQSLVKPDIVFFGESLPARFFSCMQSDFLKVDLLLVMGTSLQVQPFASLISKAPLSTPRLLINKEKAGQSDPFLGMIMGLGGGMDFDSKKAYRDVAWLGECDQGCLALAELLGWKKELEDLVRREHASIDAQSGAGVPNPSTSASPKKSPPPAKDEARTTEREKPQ
Chain of proteins of U3A human fibrosarcoma cells (4462 proteins detected) (Homo sapiens, UniProt Q14161) (Q14161 whole entry): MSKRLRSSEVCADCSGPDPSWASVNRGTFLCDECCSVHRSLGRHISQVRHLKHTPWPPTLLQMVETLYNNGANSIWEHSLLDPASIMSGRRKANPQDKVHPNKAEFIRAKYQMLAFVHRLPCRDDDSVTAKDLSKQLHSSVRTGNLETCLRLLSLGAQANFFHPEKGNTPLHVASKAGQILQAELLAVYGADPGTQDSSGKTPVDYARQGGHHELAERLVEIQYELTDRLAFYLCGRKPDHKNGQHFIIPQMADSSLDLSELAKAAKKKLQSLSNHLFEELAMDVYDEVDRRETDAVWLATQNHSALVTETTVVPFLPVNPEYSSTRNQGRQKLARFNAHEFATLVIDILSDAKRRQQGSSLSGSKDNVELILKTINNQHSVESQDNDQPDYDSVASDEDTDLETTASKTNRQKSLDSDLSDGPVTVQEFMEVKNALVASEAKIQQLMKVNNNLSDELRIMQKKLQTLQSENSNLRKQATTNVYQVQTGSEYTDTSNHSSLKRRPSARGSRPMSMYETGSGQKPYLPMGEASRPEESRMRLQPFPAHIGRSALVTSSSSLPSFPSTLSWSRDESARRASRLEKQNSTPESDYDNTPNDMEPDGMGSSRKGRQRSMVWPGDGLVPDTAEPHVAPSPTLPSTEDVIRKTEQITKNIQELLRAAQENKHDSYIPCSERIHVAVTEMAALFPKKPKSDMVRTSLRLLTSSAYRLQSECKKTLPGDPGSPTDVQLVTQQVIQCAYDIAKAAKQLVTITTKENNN
Chain of proteins of U3A human fibrosarcoma cells (4462 proteins detected) (Homo sapiens, UniProt O95671) (O95671 whole entry): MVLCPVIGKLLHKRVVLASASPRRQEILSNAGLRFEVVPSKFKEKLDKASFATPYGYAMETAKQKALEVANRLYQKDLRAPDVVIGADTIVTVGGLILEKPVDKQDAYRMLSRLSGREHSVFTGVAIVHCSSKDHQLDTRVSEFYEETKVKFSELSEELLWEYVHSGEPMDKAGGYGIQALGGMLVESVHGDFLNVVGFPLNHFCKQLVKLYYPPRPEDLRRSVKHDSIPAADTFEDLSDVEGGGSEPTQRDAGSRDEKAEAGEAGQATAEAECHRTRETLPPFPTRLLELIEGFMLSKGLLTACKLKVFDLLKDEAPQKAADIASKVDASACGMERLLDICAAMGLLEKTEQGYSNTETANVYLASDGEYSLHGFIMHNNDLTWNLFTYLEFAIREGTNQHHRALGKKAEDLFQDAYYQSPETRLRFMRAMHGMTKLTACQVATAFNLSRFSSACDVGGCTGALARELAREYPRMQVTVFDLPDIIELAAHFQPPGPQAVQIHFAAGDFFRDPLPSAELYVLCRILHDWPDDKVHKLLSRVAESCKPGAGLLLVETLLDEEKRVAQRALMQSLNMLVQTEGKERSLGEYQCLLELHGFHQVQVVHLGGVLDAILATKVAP
Chain of proteins of U3A human fibrosarcoma cells (4462 proteins detected) (Homo sapiens, UniProt O75459) (O75459 whole entry): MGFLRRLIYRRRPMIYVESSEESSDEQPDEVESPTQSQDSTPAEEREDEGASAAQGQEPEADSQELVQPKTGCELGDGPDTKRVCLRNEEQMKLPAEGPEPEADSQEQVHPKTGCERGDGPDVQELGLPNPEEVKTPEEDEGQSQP
Chain of proteins of U3A human fibrosarcoma cells (4462 proteins detected) (Homo sapiens, UniProt P63146) (P63146 whole entry): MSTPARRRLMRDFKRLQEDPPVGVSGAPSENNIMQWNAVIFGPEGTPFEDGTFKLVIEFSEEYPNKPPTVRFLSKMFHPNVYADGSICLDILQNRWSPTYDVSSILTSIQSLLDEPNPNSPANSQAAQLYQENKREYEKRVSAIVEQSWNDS
Chain of proteins of U3A human fibrosarcoma cells (4462 proteins detected) (Homo sapiens, UniProt Q9UIJ7) (Q9UIJ7 whole entry): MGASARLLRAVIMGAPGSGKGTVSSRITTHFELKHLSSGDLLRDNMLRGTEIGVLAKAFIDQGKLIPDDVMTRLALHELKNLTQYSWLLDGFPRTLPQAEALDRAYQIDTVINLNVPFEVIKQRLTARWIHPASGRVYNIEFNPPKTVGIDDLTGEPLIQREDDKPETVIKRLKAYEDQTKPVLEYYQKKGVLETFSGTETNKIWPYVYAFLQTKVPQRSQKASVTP

CCc1nc(N)nc(N)c1-c1ccc(Cl)cc1 [pyrimethamine]
Log2 (PYR/DMSO) [1]: 0.14 | Log2 (PYR/DMSO) [2]: 0.14 | Log2 (PYR/DMSO) [3]: 0.19 | Log2 (PYR/DMSO) [4]: 0.13 | Log2 (PYR/DMSO), ECM1 [5]: -0.14 | Log2 (PYR/DMSO) [6]: 0.14 | Log2 (PYR/DMSO) [7]: -0.04 | Log2 (PYR/DMSO) [8]: -0.04 | Log2 (PYR/DMSO) [9]: -0.03 | Log2 (PYR/DMSO) [10]: -0.04 | Log2 (PYR/DMSO) [11]: 0.18 | Log2 (PYR/DMSO) [12]: 0.16 | Log2 (PYR/DMSO) [13]: 0.19 | Log2 (PYR/DMSO) [14]: 0.18 | Log2 (PYR/DMSO) [15]: 0.13 | Log2 (PYR/DMSO) [16]: -0.04 | Log2 (PYR/DMSO) [17]: -0.05 | Log2 (PYR/DMSO), ASMTL [18]: 0.27 | Log2 (PYR/DMSO) [19]: 0.18 | Log2 (PYR/DMSO) [20]: 0.19 | Log2 (PYR/DMSO) [21]: 0.16 | Log2 (PYR/DMSO) [22]: 0.17 | Log2 (PYR/DMSO) [23]: -0.04 | Log2 (PYR/DMSO) [24]: 0.15 | Log2 (PYR/DMSO) [25]: 0.18 | Log2 (PYR/DMSO) [26]: -0.04 | Log2 (PYR/DMSO) [27]: -0.04 | Log2 (PYR/DMSO) [28]: 0.21 | Log2 (PYR/DMSO) [29]: 0.16 | Log2 (PYR/DMSO) [30]: 0.14
